Reference: ChEMBL document CHEMBL4261496, “Targeting quinolone- and aminocoumarin-resistant bacteria with new gyramide analogs that inhibit DNA gyrase” (Medchemcomm, 2017)
Values after ≈ are worked out from the molar mass of the structure shown. Active and inactive are the calls of the source. The calls are words filed in the database; no cut-off is given here.

Columns and labels:
[1] = tested on: Bacillus cereus; assay: Antibacterial activity against Bacillus cereus after 16 to 18 hrs by broth microdilution method; assay type: functional
[2] = tested on: Escherichia coli; assay: Antibacterial activity against Escherichia coli HB101 after 16 to 18 hrs by broth microdilution method; assay type: functional
[3] = tested on: Shigella flexneri; assay: Antibacterial activity against Shigella flexneri after 16 to 18 hrs by broth microdilution method; assay type: functional
[4] = target: DNA gyrase (Escherichia coli, UniProt P0AES4+P0AES6); assay: Inhibition of Escherichia coli DNA gyrase assessed as inhibition of pUC19 supercoiling after 30 mins by agarose gel electrophoresis; assay type: protein-complex assay
[5] = tested on: Escherichia coli; assay: Ratio of MIC for gyramide-resistant Escherichia coli JW5503 harboring GyrA Ser97Pro mutant to MIC for Escherichia coli JW5503; assay type: functional
[6] = tested on: Staphylococcus aureus; assay: Antibacterial activity against Staphylococcus aureus subsp. aureus clinical isolate after 16 to 18 hrs by broth microdilution method; assay type: functional
[7] = tested on: Enterococcus faecium; assay: Antibacterial activity against Enterococcus faecium after 16 to 18 hrs by broth microdilution method; assay type: functional
[8] = tested on: Staphylococcus epidermidis; assay: Antibacterial activity against Staphylococcus epidermidis clinical isolate after 16 to 18 hrs by broth microdilution method; assay type: functional
[9] = tested on: Bacillus subtilis; assay: Antibacterial activity against Bacillus subtilis after 16 to 18 hrs by broth microdilution method; assay type: functional
[10] = tested on: Escherichia coli; assay: Antibacterial activity against gyramide-resistant Escherichia coli JW5503 harboring GyrB Thr508Met mutant after 16 to 18 hrs by broth microdilution method; assay type: functional
[11] = tested on: Escherichia coli; assay: Antibacterial activity against Escherichia coli BW25113 after 16 to 18 hrs by broth microdilution method; assay type: functional
[12] = tested on: Escherichia coli; assay: Ratio of MIC for gyramide-resistant Escherichia coli JW5503 harboring GyrA Phe96Leu mutant to MIC for Escherichia coli JW5503; assay type: functional
[13] = tested on: Acinetobacter baumannii; assay: Antibacterial activity against Acinetobacter baumannii clinical isolate after 16 to 18 hrs by broth microdilution method; assay type: functional
[14] = tested on: Edwardsiella tarda; assay: Antibacterial activity against Edwardsiella tarda clinical isolate after 16 to 18 hrs by broth microdilution method; assay type: functional
[15] = tested on: Klebsiella aerogenes; assay: Antibacterial activity against Enterobacter aerogenes clinical isolate after 16 to 18 hrs by broth microdilution method; assay type: functional
[16] = target: DNA gyrase (Escherichia coli) (UniProt P0AES6+P0AES4); assay: Inhibition of Escherichia coli DNA gyrase ATPase activity up to 100 uM using DNA as substrate after 60 mins; assay type: protein-complex assay
[17] = tested on: Salmonella typhimurium; assay: Antibacterial activity against Salmonella enterica subsp. enterica serovar Typhimurium after 16 to 18 hrs by broth microdilution method; assay type: functional
[18] = tested on: Escherichia coli; assay: Antibacterial activity against Escherichia coli JW5503 after 16 to 18 hrs by broth microdilution method; assay type: functional
[19] = tested on: Streptococcus pyogenes; assay: Antibacterial activity against Streptococcus pyogenes after 16 to 18 hrs by broth microdilution method; assay type: functional
[20] = tested on: Enterococcus faecalis; assay: Antibacterial activity against Enterococcus faecalis after 16 to 18 hrs by broth microdilution method; assay type: functional
[21] = tested on: Escherichia coli; assay: Ratio of MIC for novobiocin-resistant Escherichia coli CC5 harboring GyrB Arg136His mutant to MIC for Escherichia coli HB101; assay type: functional
[22] = tested on: Escherichia coli; assay: Ratio of MIC for ciprofloxacin-resistant Escherichia coli JW5503 harboring GyrA Asp87Tyr mutant to MIC for Escherichia coli JW5503; assay type: functional
[23] = tested on: Escherichia coli; assay: Antibacterial activity against novobiocin-resistant Escherichia coli LE316 harboring GyrB Arg136Val mutant after 16 to 18 hrs in presence of PAbetaN by broth microdilution method; assay type: functional
[24] = tested on: Escherichia coli; assay: Antibacterial activity against ciprofloxacin-resistant Escherichia coli JW5503 harboring GyrA Asp87Tyr mutant after 16 to 18 hrs by broth microdilution method; assay type: functional
[25] = tested on: Escherichia coli; assay: Ratio of MIC for ciprofloxacin-resistant Escherichia coli JW5503 harboring GyrB Ser464Phe mutant to MIC for Escherichia coli JW5503; assay type: functional
[26] = tested on: Escherichia coli; assay: Ratio of MIC for novobiocin-resistant Escherichia coli LE316 harboring GyrB Arg136Val mutant to MIC for Escherichia coli HB101; assay type: functional
[27] = tested on: Pseudomonas aeruginosa; assay: Antibacterial activity against Pseudomonas aeruginosa after 16 to 18 hrs by broth microdilution method; assay type: functional
[28] = tested on: Streptococcus agalactiae; assay: Antibacterial activity against Streptococcus agalactiae after 16 to 18 hrs by broth microdilution method; assay type: functional
[29] = tested on: Escherichia coli; assay: Antibacterial activity against gyramide-resistant Escherichia coli JW5503 harboring GyrA Phe96Leu mutant after 16 to 18 hrs by broth microdilution method; assay type: functional
[30] = tested on: Escherichia coli; assay: Ratio of MIC for gyramide-resistant Escherichia coli JW5503 harboring GyrB Ser464Phe mutant to MIC for Escherichia coli JW5503; assay type: functional
[31] = tested on: Escherichia coli; assay: Antibacterial activity against gyramide-resistant Escherichia coli JW5503 harboring GyrA Pro35Thr mutant after 16 to 18 hrs by broth microdilution method; assay type: functional
[32] = tested on: Escherichia coli; assay: Ratio of MIC for ciprofloxacin-resistant Escherichia coli JW5503 harboring GyrA Asp87Gly mutant to MIC for Escherichia coli JW5503; assay type: functional
[33] = Ratio of MIC for Escherichia coli BW25113 to MIC for Escherichia coli JW5503; assay type: functional
[34] = tested on: Escherichia coli; assay: Ratio of MIC for novobiocin-resistant Escherichia coli CC7 harboring GyrB Arg136Ser mutant to MIC for Escherichia coli HB101; assay type: functional
[35] = tested on: Klebsiella pneumoniae; assay: Antibacterial activity against Klebsiella pneumoniae after 16 to 18 hrs by broth microdilution method; assay type: functional
[36] = tested on: Escherichia coli; assay: Ratio of MIC for gyramide-resistant Escherichia coli JW5503 harboring GyrA Pro35Thr mutant to MIC for Escherichia coli JW5503; assay type: functional
[37] = tested on: Staphylococcus saprophyticus; assay: Antibacterial activity against Staphylococcus saprophyticus clinical isolate after 16 to 18 hrs by broth microdilution method; assay type: functional
[38] = tested on: Escherichia coli; assay: Antibacterial activity against Escherichia coli BAS849 after 16 to 18 hrs by broth microdilution method; assay type: functional
[39] = tested on: Escherichia coli; assay: Antibacterial activity against gyramide-resistant Escherichia coli JW5503 harboring GyrA Ser97Pro mutant after 16 to 18 hrs by broth microdilution method; assay type: functional
[40] = tested on: Escherichia coli; assay: Antibacterial activity against gyramide-resistant Escherichia coli JW5503 harboring GyrA His45Tyr mutant after 16 to 18 hrs by broth microdilution method; assay type: functional
[41] = tested on: Escherichia coli; assay: Antibacterial activity against ciprofloxacin-resistant Escherichia coli JW5503 harboring GyrB Ser464Phe mutant after 16 to 18 hrs by broth microdilution method; assay type: functional
[42] = tested on: Escherichia coli; assay: Ratio of MIC for ciprofloxacin-resistant Escherichia coli JW5503 harboring GyrA Ser83Leu mutant to MIC for Escherichia coli JW5503; assay type: functional
[43] = tested on: Escherichia coli; assay: Antibacterial activity against Escherichia coli MC4100 after 16 to 18 hrs by broth microdilution method; assay type: functional
[44] = tested on: Escherichia coli; assay: Antibacterial activity against ciprofloxacin-resistant Escherichia coli JW5503 harboring GyrA Asp87Gly mutant after 16 to 18 hrs by broth microdilution method; assay type: functional
[45] = tested on: Morganella morganii; assay: Antibacterial activity against Morganella morganii clinical isolate after 16 to 18 hrs by broth microdilution method; assay type: functional
[46] = tested on: Escherichia coli; assay: Ratio of MIC for gyramide-resistant Escherichia coli JW5503 harboring GyrA His45Tyr mutant to MIC for Escherichia coli JW5503; assay type: functional
[47] = tested on: Escherichia coli; assay: Antibacterial activity against Escherichia coli UPEC after 16 to 18 hrs by broth microdilution method; assay type: functional

Compound: Cc1ccc(C#N)cc1S(=O)(=O)N[C@@H]1CCN(Cc2ccc(-c3ccccc3)cc2)C1
- MIC [1]: > 16 µg/mL
- MIC [2]: 1 µg/mL (≈ 2.32 µM)
- MIC [3]: 4 µg/mL (≈ 9.27 µM)
- IC50 [4]: 47 nM
- Ratio [5]: 10 - 100
- MIC [6]: > 16 µg/mL
- MIC [7]: > 16 µg/mL
- MIC [8]: > 16 µg/mL
- MIC [9]: > 16 µg/mL
- MIC [10]: 1.3 µg/mL (≈ 3.01 µM)
- MIC [11]: 8 µg/mL (≈ 18.5 µM)
- Ratio [12]: 10 - 100
- MIC [13]: > 16 µg/mL
- MIC [14]: 8 µg/mL (≈ 18.5 µM)
- MIC [15]: > 16 µg/mL
- inhibition [16]: inactive
- MIC [17]: 2 µg/mL (≈ 4.63 µM)
- MIC [18]: 0.1 µg/mL (≈ 0.232 µM)
- MIC [19]: > 16 µg/mL
- MIC [20]: > 16 µg/mL
- Ratio [21]: 2 - 4
- Ratio [22]: 2 - 4
- MIC [23]: 0.2 µg/mL
- MIC [24]: 0.1 µg/mL (≈ 0.232 µM)
- Ratio [25]: 2 - 4
- Ratio [26]: 2 - 4
- MIC [27]: > 16 µg/mL
- MIC [28]: > 16 µg/mL
- MIC [29]: 2.7 µg/mL (≈ 6.26 µM)
- Ratio [30]: 10 - 100
- MIC [31]: 5.4 µg/mL (≈ 12.5 µM)
- Ratio [32]: 2 - 4
- Ratio [33]: 80
- Ratio [34]: 2 - 4
- MIC [35]: > 16 µg/mL
- Ratio [36]: 10 - 100
- MIC [37]: > 16 µg/mL
- MIC [38]: 0.5 µg/mL (≈ 1.16 µM)
- MIC [39]: 22 µg/mL (≈ 51 µM)
- MIC [40]: 22 µg/mL (≈ 51 µM)
- MIC [41]: 0.4 µg/mL (≈ 0.927 µM)
- Ratio [42]: 2 - 4
- MIC [43]: 8 µg/mL (≈ 18.5 µM)
- MIC [44]: 0.2 µg/mL (≈ 0.463 µM)
- MIC [45]: > 16 µg/mL
- Ratio [46]: 10 - 100
- MIC [47]: > 16 µg/mL
